One experiment has as its target T1, FLT3 D835V (Homo sapiens, UniProt P36888, D835V).
T1 construct: purchased DiscoverX (KINOMEscan)
T1 sequence (P36888 27-993 D835V): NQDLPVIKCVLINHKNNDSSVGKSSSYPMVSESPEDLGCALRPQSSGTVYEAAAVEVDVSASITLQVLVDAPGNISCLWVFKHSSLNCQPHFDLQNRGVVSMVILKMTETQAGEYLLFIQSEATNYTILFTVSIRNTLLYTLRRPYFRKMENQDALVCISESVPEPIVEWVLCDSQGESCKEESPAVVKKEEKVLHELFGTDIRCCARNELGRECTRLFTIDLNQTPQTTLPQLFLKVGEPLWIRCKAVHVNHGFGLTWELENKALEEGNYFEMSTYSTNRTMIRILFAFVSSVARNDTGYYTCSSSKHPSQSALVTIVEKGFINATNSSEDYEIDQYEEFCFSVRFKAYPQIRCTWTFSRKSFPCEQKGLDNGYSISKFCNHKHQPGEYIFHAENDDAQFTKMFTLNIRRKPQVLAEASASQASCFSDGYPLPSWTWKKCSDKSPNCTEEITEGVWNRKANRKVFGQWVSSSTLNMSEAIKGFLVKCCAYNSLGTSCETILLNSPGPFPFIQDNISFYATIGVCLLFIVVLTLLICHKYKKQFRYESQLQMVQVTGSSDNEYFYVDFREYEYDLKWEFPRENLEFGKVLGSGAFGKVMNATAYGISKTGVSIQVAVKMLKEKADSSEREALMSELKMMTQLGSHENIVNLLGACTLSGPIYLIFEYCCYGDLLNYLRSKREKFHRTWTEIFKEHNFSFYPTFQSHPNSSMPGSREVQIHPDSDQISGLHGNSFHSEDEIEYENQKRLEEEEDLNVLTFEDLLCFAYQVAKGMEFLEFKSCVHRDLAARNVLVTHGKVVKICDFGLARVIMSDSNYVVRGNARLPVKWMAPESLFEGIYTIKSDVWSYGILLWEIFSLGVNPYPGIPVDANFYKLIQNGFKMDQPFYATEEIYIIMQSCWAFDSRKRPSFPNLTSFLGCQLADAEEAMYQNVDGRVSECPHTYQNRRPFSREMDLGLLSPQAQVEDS
The experiment can be described thus: DiscoverX KINOMEscan competition binding, FLT3 D835V.

The next experiment addresses T2, FLT3 R834Q (Homo sapiens, UniProt P36888, R834Q).
T2 construct: purchased DiscoverX (KINOMEscan)
T2 sequence (P36888 27-993 R834Q): T1 sequence (P36888 27-993 D835V) with R808Q, V809D
Briefly: DiscoverX KINOMEscan competition binding, FLT3 R834Q.

A further experiment deals with T3, FLT3 Autoinh. (Homo sapiens, UniProt P36888).
T3 construct: purchased DiscoverX (KINOMEscan)
T3 sequence (P36888 564-993 limits assumed): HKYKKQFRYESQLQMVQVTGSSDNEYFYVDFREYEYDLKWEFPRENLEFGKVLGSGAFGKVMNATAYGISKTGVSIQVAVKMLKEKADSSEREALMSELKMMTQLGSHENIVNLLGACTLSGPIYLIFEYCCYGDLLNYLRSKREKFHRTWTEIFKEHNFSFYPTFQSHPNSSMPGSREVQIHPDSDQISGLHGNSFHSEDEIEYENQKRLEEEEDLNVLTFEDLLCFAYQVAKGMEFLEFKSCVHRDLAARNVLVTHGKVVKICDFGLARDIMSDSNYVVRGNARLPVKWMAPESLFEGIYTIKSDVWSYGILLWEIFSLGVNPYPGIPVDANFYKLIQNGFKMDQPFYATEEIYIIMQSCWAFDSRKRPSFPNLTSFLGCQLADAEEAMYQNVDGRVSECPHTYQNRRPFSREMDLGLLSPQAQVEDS
The experiment can be described thus: DiscoverX KINOMEscan competition binding, FLT3 Autoinh.

Each structure is given as a SMILES string. Where a chain is given by its changes, count along the chain named.

In the case of `COc1cc2ncc(-c3cncc(N[C@H]4CNCC[C@@H]4F)n3)n2nc1C1CC1` [Compound 24, 6-(6-cyclopropyl-7-methoxyimidazo[1,2-b]pyridazin-3-yl)-N-((3S,4S)-4-fluoropiperidin-3-yl)pyrazin-2-amine], the Kd turned out to be 0.063 nM on FLT3 D835V, 1.8 nM on FLT3 R834Q and 25 nM on FLT3 Autoinh..

For the compound `COc1cc2ncc(-c3cncc(N[C@H]4CNC[C@@H]4F)n3)n2nc1C1CC1` [Compound 22, 6-(6-cyclopropyl-7-methoxyimidazo[1,2-b]pyridazin-3-yl)-N-((3S,4S)-4-fluoropyrrolidin-3-yl)pyrazin-2-amine], the results for the Kd at FLT3 D835V, at FLT3 R834Q and at FLT3 Autoinh. were 0.15 nM, 9.3 nM and 33 nM, respectively.

With `COc1cc2ncc(-c3ccnc(N[C@H]4CNC[C@@H]4F)n3)n2nc1C1CC1` [Compound 49, 4-(6-cyclopropyl-7-methoxyimidazo[1,2-b]pyridazin-3-yl)-N-((3S,4S)-4-fluoropyrrolidin-3-yl)pyrimidin-2-amine], the Kd came to 0.06 nM on FLT3 D835V, 1.4 nM at FLT3 R834Q and 16 nM on FLT3 Autoinh..

`CC(O)(c1cn2c(-c3ccnc(N[C@H]4CNCC[C@@H]4F)n3)cnc2cn1)C(F)(F)F` (single isomer, unassigned) [Compound 72]: the Kd on FLT3 D835V was found to be 0.47 nM; at FLT3 R834Q, 14 nM; on FLT3 Autoinh., 25 nM.

As to `F[C@H]1CCNC[C@@H]1Nc1cncc(-c2cnc3cc(OC4CC4)ccn23)n1` [Compound 12, 6-(7-cyclopropoxyimidazo[1,2-a]pyridin-3-yl)-N-((3S,4S)-4-fluoropiperidin-3-yl)pyrazin-2-amine], the Kd at FLT3 D835V was 0.16 nM; at FLT3 R834Q it was 18 nM.

As to `COc1cc2ncc(-c3ccnc(N[C@@H]4CCCNC4)n3)n2cc1C(C)(C)O` [Compound 44, (R)-2-(7-methoxy-3-(2-(piperidin-3-ylamino)pyrimidin-4-yl)imidazo[1,2-a]pyridin-6-yl)propan-2-ol], the Kd worked out at 0.042 nM at FLT3 D835V, 1.4 nM on FLT3 R834Q and 2.3 nM on FLT3 Autoinh..

On to `COc1cc2ncc(-c3ccnc(N[C@H]4CNCC[C@@H]4F)n3)n2nc1C1CC1` [Compound 51, 4-(6-cyclopropyl-7-methoxyimidazo[1,2-b]pyridazin-3-yl)-N-((3S,4S)-4-fluoropiperidin-3-yl)pyrimidin-2-amine], for which the Kd was 0.11 nM on FLT3 D835V, 1.1 nM on FLT3 R834Q and 40 nM on FLT3 Autoinh..

One may read the Kd as a measure of binding affinity in units of concentration.

The values are drawn from patent publication US20250154144A1 (CHILDREN'S HOSPITAL MEDICAL CENTER, priority 2021, published 2025).
